Key:
Type in all cases: in vivo
[1] = tested on: Ipomoea hederacea (IPOHE); assay: Post-emergence herbicidal glasshouse test; conditions: for percentage damage caused to the plant, five-point scale, IPOHE: post-emergence, 250 g/ha, 13 days after application; for % phytotoxicity IPOHE: comparative post-emergence test
Description: (§1) Seeds of a variety of test species are shown in standard soil in pots Amaranthus retoflexus (AMARE), Ipomoea hederacea (IPOHE), Solanum nigrum (SOLNI), Lolium perenne (LOLPE). Echinochloa crus-galli (ECHCG), Setaria faberi (SETFA)). After cultivation for one day (pre-emergence) or after 8 days cultivation (post-emergence) under controlled conditions in a glasshouse (at 24/16° C., day/night; 14 hours light; 65% humidity), the plants are sprayed with an aqueous spray solution derived from the formulation of the technical active ingredient in acetone/water (50:50) solution containing 0.5% Tween 20 (polyoxyethylene sorbitan monolaurate, CAS RN 9005-64-5). Compounds are applied at 250 g/ha unless otherwise stated. The test plants are then grown in a glasshouse under controlled conditions in a glasshouse (at 24/16° C., day/night; 14 hours light; 65% humidity) and watered twice daily. After 13 days for pre and post-emergence, the test is evaluated for the percentage damage caused to the plant. The biological activities are shown in the following table on a five-point scale (5=81-100%; 4=61-80%; 3=41-60%; 2=21-40%; 1=0-20%).
(§2) Using the experimental conditions outlined above, a further test is conducted to compare the herbicidal properties of the difluro containing compound (1.014) with a representative compound (C1) referred to in GB901553. The compounds are applied at 1000 g/ha and 500 g/ha. The test is evaluated for the percentage damage caused to the plant (% phytotoxicity).

[2] = tested on: Echinochloa crus-galli (ECHCG); assay: Post-emergence herbicidal glasshouse test; conditions: for percentage damage caused to the plant, five-point scale, ECHCG: post-emergence, 250 g/ha, 13 days after application; for % phytotoxicity ECHCG: comparative post-emergence test
Description: as §1, §2

[3] = tested on: Setaria faberi (SETFA); assay: Post-emergence herbicidal glasshouse test; conditions: for percentage damage caused to the plant, five-point scale, SETFA: post-emergence, 250 g/ha, 13 days after application; for % phytotoxicity SETFA: comparative post-emergence test
Description: as §1, §2

[4] = tested on: Solanum nigrum (SOLNI); assay: Post-emergence herbicidal glasshouse test; conditions: for percentage damage caused to the plant, five-point scale, SOLNI: post-emergence, 250 g/ha, 13 days after application; for % phytotoxicity SOLNI: comparative post-emergence test
Description: as §1, §2

[5] = tested on: Lolium perenne (LOLPE); assay: Post-emergence herbicidal glasshouse test; conditions: for percentage damage caused to the plant, five-point scale, LOLPE: post-emergence, 250 g/ha, 13 days after application; for % phytotoxicity LOLPE: comparative post-emergence test
Description: as §1, §2

[6] = tested on: Amaranthus retoflexus (AMARE); assay: Post-emergence herbicidal glasshouse test; conditions: for percentage damage caused to the plant, five-point scale, AMARE: post-emergence, 250 g/ha, 13 days after application; for % phytotoxicity AMARE: comparative post-emergence test
Description: as §1, §2

[7] = tested on: Ipomoea hederacea (IPOHE); assay: Pre-emergence herbicidal glasshouse test; conditions: for percentage damage caused to the plant, five-point scale, IPOHE: pre-emergence, 250 g/ha, 13 days after application; for % phytotoxicity IPOHE: comparative pre-emergence test
Description: as §1, §2

[8] = tested on: Echinochloa crus-galli (ECHCG); assay: Pre-emergence herbicidal glasshouse test; conditions: for percentage damage caused to the plant, five-point scale, ECHCG: pre-emergence, 250 g/ha, 13 days after application; for % phytotoxicity ECHCG: comparative pre-emergence test
Description: as §1, §2

[9] = tested on: Setaria faberi (SETFA); assay: Pre-emergence herbicidal glasshouse test; conditions: for percentage damage caused to the plant, five-point scale, SETFA: pre-emergence, 250 g/ha, 13 days after application; for % phytotoxicity SETFA: comparative pre-emergence test
Description: as §1, §2

[10] = tested on: Solanum nigrum (SOLNI); assay: Pre-emergence herbicidal glasshouse test; conditions: for percentage damage caused to the plant, five-point scale, SOLNI: pre-emergence, 250 g/ha, 13 days after application; for % phytotoxicity SOLNI: comparative pre-emergence test
Description: as §1, §2

[11] = tested on: Lolium perenne (LOLPE); assay: Pre-emergence herbicidal glasshouse test; conditions: for percentage damage caused to the plant, five-point scale, LOLPE: pre-emergence, 250 g/ha, 13 days after application; for % phytotoxicity LOLPE: comparative pre-emergence test
Description: as §1, §2

[12] = tested on: Amaranthus retoflexus (AMARE); assay: Pre-emergence herbicidal glasshouse test; conditions: for percentage damage caused to the plant, five-point scale, AMARE: pre-emergence, 250 g/ha, 13 days after application; for % phytotoxicity AMARE: comparative pre-emergence test
Description: as §1, §2

## O=C(O)C(F)(F)c1cccc(Br)c1Cl [Compound 1.037]
[1]
  percentage damage caused to the plant, five-point scale, IPOHE: 4 (4=61-80%)
[2]
  percentage damage caused to the plant, five-point scale, ECHCG: 4 (4=61-80%)
[3]
  percentage damage caused to the plant, five-point scale, SETFA: 4 (4=61-80%)
[4]
  percentage damage caused to the plant, five-point scale, SOLNI: 5 (5=81-100%)
[5]
  percentage damage caused to the plant, five-point scale, LOLPE: 3 (3=41-60%)
[6]
  percentage damage caused to the plant, five-point scale, AMARE: 5 (5=81-100%)
[7]
  percentage damage caused to the plant, five-point scale, IPOHE: 4 (4=61-80%)
[8]
  percentage damage caused to the plant, five-point scale, ECHCG: 4 (4=61-80%)
[9]
  percentage damage caused to the plant, five-point scale, SETFA: 4 (4=61-80%)
[10]
  percentage damage caused to the plant, five-point scale, SOLNI: 5 (5=81-100%)
[11]
  percentage damage caused to the plant, five-point scale, LOLPE: 3 (3=41-60%)
[12]
  percentage damage caused to the plant, five-point scale, AMARE: 5 (5=81-100%)

## O=C(O)C(F)(F)c1cccc(Br)c1F [Compound 1.033]
[1]
  percentage damage caused to the plant, five-point scale, IPOHE: 4 (4=61-80%)
[2]
  percentage damage caused to the plant, five-point scale, ECHCG: 4 (4=61-80%)
[3]
  percentage damage caused to the plant, five-point scale, SETFA: 4 (4=61-80%)
[4]
  percentage damage caused to the plant, five-point scale, SOLNI: 5 (5=81-100%)
[5]
  percentage damage caused to the plant, five-point scale, LOLPE: 1 (1=0-20%)
[6]
  percentage damage caused to the plant, five-point scale, AMARE: 5 (5=81-100%)
[7]
  percentage damage caused to the plant, five-point scale, IPOHE: 4 (4=61-80%)
[8]
  percentage damage caused to the plant, five-point scale, ECHCG: 4 (4=61-80%)
[9]
  percentage damage caused to the plant, five-point scale, SETFA: 4 (4=61-80%)
[10]
  percentage damage caused to the plant, five-point scale, SOLNI: 5 (5=81-100%)
[11]
  percentage damage caused to the plant, five-point scale, LOLPE: 1 (1=0-20%)
[12]
  percentage damage caused to the plant, five-point scale, AMARE: 5 (5=81-100%)

## O=C(O)C(F)(F)c1cc(Cl)ccc1Cl [Compound 1.012]
[1]
  percentage damage caused to the plant, five-point scale, IPOHE: 3 (3=41-60%)
[2]
  percentage damage caused to the plant, five-point scale, ECHCG: 1 (1=0-20%)
[3]
  percentage damage caused to the plant, five-point scale, SETFA: 1 (1=0-20%)
[4]
  percentage damage caused to the plant, five-point scale, SOLNI: 4 (4=61-80%)
[5]
  percentage damage caused to the plant, five-point scale, LOLPE: 1 (1=0-20%)
[6]
  percentage damage caused to the plant, five-point scale, AMARE: 4 (4=61-80%)
[7]
  percentage damage caused to the plant, five-point scale, IPOHE: 3 (3=41-60%)
[8]
  percentage damage caused to the plant, five-point scale, ECHCG: 1 (1=0-20%)
[9]
  percentage damage caused to the plant, five-point scale, SETFA: 1 (1=0-20%)
[10]
  percentage damage caused to the plant, five-point scale, SOLNI: 3 (3=41-60%)
[11]
  percentage damage caused to the plant, five-point scale, LOLPE: 1 (1=0-20%)
[12]
  percentage damage caused to the plant, five-point scale, AMARE: 4 (4=61-80%)

## O=C(O)C(F)(F)c1cc(Cl)cc(Cl)c1 [Compound 1.007]
[1]
  percentage damage caused to the plant, five-point scale, IPOHE: 1 (1=0-20%)
[2]
  percentage damage caused to the plant, five-point scale, ECHCG: 1 (1=0-20%)
[3]
  percentage damage caused to the plant, five-point scale, SETFA: 1 (1=0-20%)
[4]
  percentage damage caused to the plant, five-point scale, SOLNI: 3 (3=41-60%)
[5]
  percentage damage caused to the plant, five-point scale, LOLPE: 1 (1=0-20%)
[6]
  percentage damage caused to the plant, five-point scale, AMARE: 3 (3=41-60%)
[7]
  percentage damage caused to the plant, five-point scale, IPOHE: 1 (1=0-20%)
[8]
  percentage damage caused to the plant, five-point scale, ECHCG: 1 (1=0-20%)
[9]
  percentage damage caused to the plant, five-point scale, SETFA: 1 (1=0-20%)
[10]
  percentage damage caused to the plant, five-point scale, SOLNI: 1 (1=0-20%)
[11]
  percentage damage caused to the plant, five-point scale, LOLPE: 1 (1=0-20%)
[12]
  percentage damage caused to the plant, five-point scale, AMARE: 1 (1=0-20%)

## O=C(O)C(F)(F)c1cccc(Cl)c1Cl [Compound 1.014]
[1]; 500 g/ha
  % phytotoxicity IPOHE: 90%
[1]; 1000 g/ha
  % phytotoxicity IPOHE: 90%
[1]
  percentage damage caused to the plant, five-point scale, IPOHE: 5 (5=81-100%)
[2]; 500 g/ha
  % phytotoxicity ECHCG: 80%
[2]; 1000 g/ha
  % phytotoxicity ECHCG: 90%
[2]
  percentage damage caused to the plant, five-point scale, ECHCG: 5 (5=81-100%)
[3]; 500 g/ha
  % phytotoxicity SETFA: 90%
[3]; 1000 g/ha
  % phytotoxicity SETFA: 90%
[3]
  percentage damage caused to the plant, five-point scale, SETFA: 5 (5=81-100%)
[4]; 500 g/ha
  % phytotoxicity SOLNI: 100%
[4]; 1000 g/ha
  % phytotoxicity SOLNI: 100%
[4]
  percentage damage caused to the plant, five-point scale, SOLNI: 5 (5=81-100%)
[5]; 500 g/ha
  % phytotoxicity LOLPE: 10%
[5]; 1000 g/ha
  % phytotoxicity LOLPE: 20%
[5]
  percentage damage caused to the plant, five-point scale, LOLPE: 1 (1=0-20%)
[6]; 500 g/ha
  % phytotoxicity AMARE: 100%
[6]; 1000 g/ha
  % phytotoxicity AMARE: 100%
[6]
  percentage damage caused to the plant, five-point scale, AMARE: 5 (5=81-100%)
[7]; 500 g/ha
  % phytotoxicity IPOHE: 80%
[7]; 1000 g/ha
  % phytotoxicity IPOHE: 90%
[7]
  percentage damage caused to the plant, five-point scale, IPOHE: 5 (5=81-100%)
[8]; 500 g/ha
  % phytotoxicity ECHCG: 30%
[8]; 1000 g/ha
  % phytotoxicity ECHCG: 80%
[8]
  percentage damage caused to the plant, five-point scale, ECHCG: 5 (5=81-100%)
[9]; 500 g/ha
  % phytotoxicity SETFA: 90%
[9]; 1000 g/ha
  % phytotoxicity SETFA: 90%
[9]
  percentage damage caused to the plant, five-point scale, SETFA: 4 (4=61-80%)
[10]; 500 g/ha
  % phytotoxicity SOLNI: 100%
[10]; 1000 g/ha
  % phytotoxicity SOLNI: 100%
[10]
  percentage damage caused to the plant, five-point scale, SOLNI: 5 (5=81-100%)
[11]; 500 g/ha
  % phytotoxicity LOLPE: 10%
[11]; 1000 g/ha
  % phytotoxicity LOLPE: 40%
[11]
  percentage damage caused to the plant, five-point scale, LOLPE: 1 (1=0-20%)
[12]; 500 g/ha
  % phytotoxicity AMARE: 90%
[12]; 1000 g/ha
  % phytotoxicity AMARE: 100%
[12]
  percentage damage caused to the plant, five-point scale, AMARE: 5 (5=81-100%)
